Data reported in ChEMBL document CHEMBL3399962, “Design and synthesis of a novel candidate compound NTI-007 targeting sodium taurocholate cotransporting polypeptide [NTCP]-APOA1-HBx-Beclin1-mediated autophagic pathway in HBV therapy” (Bioorg Med Chem, 2015).
Calls of active or inactive are those of the source. No cut-off for these calls is given here.

Legend:
[1] = Cytotoxicity against human HepG2.2.15 cells assessed as cell death after 9 days by MTS assay; format: cell-based, HepG2 2.2.15
Hepatitis B virus [2] = assay: Antiviral activity against hepatitis B viral in human HepG2.2.15 cells assessed as surface antigen HBsAg secretion after 9 days by ELISA; format: functional, organism-based; conditions: HepG2 2.2.15, 216 h
[3] = Selectivity index, ratio of CC50 for human HepG2.2.15 cells to IC50 for decrease in hepatitis B viral surface antigen HBsAg secretion in human HepG2.2.15 cells; format: functional
Hepatitis B virus [4] = assay: Antiviral activity against hepatitis B viral in human HepG2.2.15 cells assessed as HBeAg secretion after 9 days by ELISA; format: functional, organism-based; conditions: HepG2 2.2.15, 216 h
[5] = Selectivity index, ratio of CC50 for human HepG2.2.15 cells to IC50 for decrease in hepatitis B viral HBeAg secretion in human HepG2.2.15 cells; format: functional
Hepatitis B virus [6] = assay: Antiviral activity against hepatitis B viral in human HepG2.2.15 cells assessed as viral DNA replication after 9 days by real-time PCR analysis (reference value: 6.12 +/- 1.46 AU); format: functional, HepG2 2.2.15
Hepatitis B virus [7] = assay: Antiviral activity against hepatitis B viral in human HepG2.2.15 cells assessed as viral surface antigen HBsAg level after 9 days by ELISA (reference value: 721 +/- 32 pg/ml); format: functional, HepG2 2.2.15
Hepatitis B virus [8] = assay: Antiviral activity against hepatitis B viral in human HepG2.2.15 cells assessed as viral HBcAg level after 9 days by ELISA (reference value: 14.16 +/- 1.92 ng/ml); format: functional, HepG2 2.2.15
[9] = Antiproliferative activity against human HepG2.2.15 cells assessed as cell growth at 20 uM after 0 to 24 hrs by MTT assay; format: cell-based; conditions: hepg2 2.2.15, 20 µM
HepG2 2.2.15 [10] = assay: Induction of autophagy in HBV-infected human HepG2.2.15 cells assessed as decrease in NTCP level after 12 to 24 hrs by Western blot analysis; format: functional
HepG2 2.2.15 [11] = assay: Induction of autophagy in HBV-infected human HepG2.2.15 cells assessed as decrease in APOA1 level after 12 to 24 hrs by Western blot analysis; format: functional
HepG2 2.2.15 [12] = assay: Induction of autophagy in HBV-infected human HepG2.2.15 cells assessed as decrease in HBx level after 12 to 24 hrs by Western blot analysis; format: functional
[13] = target: Sodium/bile acid cotransporter NTCP (Homo sapiens) (UniProt Q14973); assay: Induction of human NTCP receptor inhibition-mediated autophagy in HBV-infected human HepG2.2.15 cells assessed as MDC positive cells at 20 uM after 12 hrs by […] (reference value: 0.60%); parameters: scale not given: the % may be the effect or the level left
[14] = target: Sodium/bile acid cotransporter NTCP (Homo sapiens) (UniProt Q14973); assay: Induction of human NTCP receptor inhibition-mediated autophagy in HBV-infected human HepG2.2.15 cells assessed as MDC positive cells at 20 uM after 24 hrs by […] (reference value: 0.60%); parameters: scale not given: the % may be the effect or the level left

Sequence of Sodium/bile acid cotransporter NTCP (Homo sapiens) (Q14973 whole entry, looked up): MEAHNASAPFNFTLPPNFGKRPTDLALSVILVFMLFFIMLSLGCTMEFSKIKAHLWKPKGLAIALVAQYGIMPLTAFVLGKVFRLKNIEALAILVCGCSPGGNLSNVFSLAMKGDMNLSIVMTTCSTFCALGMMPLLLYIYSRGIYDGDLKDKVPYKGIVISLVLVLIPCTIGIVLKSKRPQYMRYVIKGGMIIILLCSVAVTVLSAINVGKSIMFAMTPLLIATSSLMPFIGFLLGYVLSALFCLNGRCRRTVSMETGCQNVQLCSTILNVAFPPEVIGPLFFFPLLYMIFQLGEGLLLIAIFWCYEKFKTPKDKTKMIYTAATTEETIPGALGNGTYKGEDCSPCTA

Row | Compound | IC50 (Hepatitis B virus [2]) | IC50 (Hepatitis B virus [4]) | Activity [13] | Activity [14] | CC50 at 216 h [1] | Selectivity Index [3] | Selectivity Index [5] | Activity (Hepatitis B virus [6]) | Activity (Hepatitis B virus [7]) | Activity (Hepatitis B virus [8]) | Activity [9] | inhibition (HepG2 2.2.15 [10]) | inhibition (HepG2 2.2.15 [11]) | inhibition (HepG2 2.2.15 [12])
1 | COC(=O)Nc1nc2cc(C(=O)c3cccc(F)c3)ccc2[nH]1 | 245 µM | 397 µM |  |  | 21.2 µM | 0.09 | 0.05 |  |  |  |  |  |  | 
2 | COC(=O)Nc1nc2ccc(C(=O)c3ccccc3)cc2[nH]1 [MEBENDAZOLE] | > 1000 µM | > 1000 µM |  |  | > 1000 µM |  |  |  |  |  |  |  |  | 
3 | Nc1ncnc2c1ncn2CCOCP(=O)(O)O [ADEFOVIR] | 257 µM | 215 µM |  |  | 490 µM | 1.9 | 2.27 | 4.12 a.u. | 571 pg/mL | 12100 pg/mL |  |  |  | 
4 | COC(=O)Nc1nc2cc(C(=O)c3ccc(F)cc3)ccc2[nH]1 [FLUBENDAZOLE] |  |  |  |  |  | 2.5 | 4.75 | 3.76 a.u. | 361 pg/mL | 10100 pg/mL |  |  |  | 
5 | COC(=O)Nc1nc2cc(C(=O)c3ccco3)ccc2[nH]1 | > 1000 µM | > 1000 µM |  |  | > 1000 µM |  |  |  |  |  |  |  |  | 
6 | COC(=O)Nc1nc2cc(C(=O)c3ccccn3)ccc2[nH]1 | > 1000 µM | > 1000 µM |  |  | > 1000 µM |  |  |  |  |  |  |  |  | 

Now from value to molecule, other results behind:

Row | IC50 (Hepatitis B virus [2]) | IC50 (Hepatitis B virus [4]) | Activity [13] | Activity [14] | Compound | CC50 at 216 h [1] | Selectivity Index [3] | Selectivity Index [5] | Activity (Hepatitis B virus [6]) | Activity (Hepatitis B virus [7]) | Activity (Hepatitis B virus [8]) | Activity [9] | inhibition (HepG2 2.2.15 [10]) | inhibition (HepG2 2.2.15 [11]) | inhibition (HepG2 2.2.15 [12])
7 | 41.2 µM | 167 µM |  |  | COC(=O)Nc1nc2nc(C(=O)c3cccc(OC)c3)ccc2[nH]1 | 78.1 µM | 1.89 | 0.47 |  |  |  |  |  |  | 
8 | 190 µM | 312 µM |  |  | COC(=O)Nc1nc2cc(C(=O)c3ccc(OC)c(OC)c3)ccc2[nH]1 | 48.5 µM | 0.25 | 0.15 |  |  |  |  |  |  | 
9 | 97.5 µM | 479 µM |  |  | COC(=O)Nc1nc2cc(C(=O)c3cccc(OC)c3)ccc2[nH]1 | 117 µM | 1.19 | 0.24 |  |  |  |  |  |  | 
10 | 37.3 µM | 78.4 µM |  |  | COC(=O)Nc1nc2nc(C(=O)c3ccc(OC)c(OC)c3)ccc2[nH]1 | 102 µM | 2.74 | 1.3 |  |  |  |  |  |  | 
11 | 17.9 µM | 25.1 µM | 9.3% | 31.1% | COC(=O)Nc1nc2nc(C(=O)c3ccc(O)c(OC)c3)ccc2[nH]1 | 197 µM | 11 | 7.86 | 2.46 a.u. | 258 pg/mL | 8140 pg/mL | Toxic | Active | Active | Active
12 | 29.7 µM | 216 µM |  |  | COC(=O)Nc1nc2cc(C(=O)c3ccc(O)c(OC)c3)ccc2[nH]1 | 105 µM | 3.55 | 0.49 |  |  |  |  |  |  | 
